# Measurements from article PMC8854719, “Phase 1A/1B dose-escalation and -expansion study to evaluate the safety, pharmacokinetics, food effects and antitumor activity of pamiparib in advanced solid tumours” (British Journal of Cancer, 2021).
# Test system: epithelial ovarian cancer (EOC)
# Experiment: Tumour response and PFS per RECIST v1.1, EOC efficacy-evaluable population
# Type: in vivo, human
# Conditions: for Event-free rate, 1 year / Event-free rate, 2 years / ORR, subgroup Age <65 / ORR, subgroup Age ≥65 / ORR, subgroup Baseline ECOG performance status 0 / ORR, subgroup Baseline ECOG performance status ≥1 / ORR, subgroup Germline BRCA status Mutant / ORR, subgroup Germline BRCA status Wild-type/Unknown / ORR, subgroup Germline or somatic BRCA status Mutant / ORR, subgroup Germline or somatic BRCA status Wild-type/Unknown / ORR, subgroup HRD status Negative/Unknown / ORR, subgroup HRD status Positive / ORR, subgroup Platinum-sensitivity status Refractory / ORR, subgroup Platinum-sensitivity status Resistant / ORR, subgroup Platinum-sensitivity status Sensitive / ORR, subgroup Solid tumor stage 3 / ORR, subgroup Solid tumor stage 4 / PFS censored: No disease progression or death / PFS censored: No postbaseline assessment / PFS censored: ≥2 consecutive missed assessments / PFS events: Death / PFS events: Disease progression / PFS: Censored / PFS: Events / Progression-Free Survival, Median: EOC
# Method: Tumour response was evaluated by RECIST v1.1. For patients with ovarian cancer, tumour response was assessed per RECIST v1.1 and by Gynecologic Cancer Intergroup (GCIG) CA-125 criteria. Tumour response for patients with prostate cancer was assessed by Prostate Cancer Clinical Trials Working Group 2 (PCWG2) criteria. Objective response rate (ORR) was defined as the proportion of patients achieving a confirmed complete response (CR) or partial response (PR) on study treatment. Blood tumour antigens (e.g., carcinoembryonic antigen for colorectal cancer, CA-125 for ovarian cancer and prostate-specific antigen [PSA] for mCRPC) were assessed during screening, every 6 weeks after the first pamiparib dose in the first 12 months, and every 9 weeks thereafter.
# Analyses of ORR (95% confidence interval [CI]) by investigator assessment were performed using predefined subgroups of the EOC population, including age group (<65 years versus ≥65 years), baseline ECOG performance status (0 versus 1), solid tumour stage (Stage III versus IV), BRCA/HRD status (germline BRCA mutation versus wild-type or unknown; germline or somatic BRCA mutation versus wild-type or unknown; HRD-positive versus negative or unknown), and platinum response status (platinum-sensitive versus platinum-resistant versus platinum-refractory).
# The safety population comprised all patients in the dose-escalation and dose-expansion phases who received at least one dose of pamiparib (Supplementary Table S2). Patients in the safety analysis set for whom valid pamiparib PK parameters were estimated and for whom evaluable PD results were available represented the PK population and the PD population, respectively. The efficacy-evaluable population included patients in the safety analysis set who had at least one evaluable postbaseline tumour assessment or those who discontinued due to clinical disease progression or early death before tumour assessment could be performed. The EOC efficacy-evaluable population was a subset of the overall efficacy-evaluable population that included patients with EOC from both the dose-escalation and dose-expansion phases. Patients in the dose-expansion phase without measurable disease at baseline per RECIST v1.1 were excluded from the efficacy-evaluable population.
# Descriptive statistics were used to summarise all study data (see Supplemental Appendix). Progression-free survival (PFS) and event-free rates were estimated using the Kaplan–Meier method along with the corresponding 95% CI. Pharmacokinetic parameters were derived using standard non-compartmental methods with Phoenix WinNonlin Version 6.4 or higher (Pharsight Corp., Mountain View, California).
# [1] = EOC evaluable for efficacy (N=60)
smiles,measurement,setting,value
C[C@]12CCCN1CC1=NNC(=O)c3cc(F)cc4[nH]c2c1c34 [pamiparib],CR,[1],6.7%
same,PR,[1],31.7%
same,"Event-free rate, 1 year",Total (N=60),41.0 (26.93-54.59) % (95% CI)
same,"Event-free rate, 2 years",Total (N=60),14.8 (5.46-28.41) % (95% CI)
same,"ORR, subgroup Age <65",Total (N=60),39.5 (24.98-55.59) [43/60] % (95% CI)
same,"ORR, subgroup Age ≥65",Total (N=60),35.3 (14.21-61.67) [17/60] % (95% CI)
same,"ORR, subgroup Baseline ECOG performance status 0",Total (N=60),45.8 (25.55-67.18) [24/60] % (95% CI)
same,"ORR, subgroup Baseline ECOG performance status ≥1",Total (N=60),33.3 (18.56-50.97) [36/60] % (95% CI)
same,"ORR, subgroup Germline BRCA status Mutant",Total (N=60),66.7 (40.99-86.66) [18/60] % (95% CI)
same,"ORR, subgroup Germline BRCA status Wild-type/Unknown",Total (N=60),26.2 (13.86-42.04) [42/60] % (95% CI)
same,"ORR, subgroup Germline or somatic BRCA status Mutant",Total (N=60),61.3 (42.19-78.15) [31/60] % (95% CI)
same,"ORR, subgroup Germline or somatic BRCA status Wild-type/Unknown",Total (N=60),13.8 (3.89-31.66) [29/60] % (95% CI)
same,"ORR, subgroup HRD status Negative/Unknown",Total (N=60),15.4 (4.36-34.87) [26/60] % (95% CI)
same,"ORR, subgroup HRD status Positive",Total (N=60),55.9 (37.89-72.81) [34/60] % (95% CI)
same,"ORR, subgroup Platinum-sensitivity status Refractory",Total (N=60),8.3 (0.21-38.48) [12/60] % (95% CI)
same,"ORR, subgroup Platinum-sensitivity status Resistant",Total (N=60),16.7 (4.74-37.38) [24/60] % (95% CI)
same,"ORR, subgroup Platinum-sensitivity status Sensitive",Total (N=60),75.0 (53.29-90.23) [24/60] % (95% CI)
same,"ORR, subgroup Solid tumor stage 3",Total (N=60),45.5 (28.11-63.65) [33/60] % (95% CI)
same,"ORR, subgroup Solid tumor stage 4",Total (N=60),26.1 (10.23-48.41) [23/60] % (95% CI)
same,PFS censored: No disease progression or death,Total (N=60),17 (28.3) n (%)
same,PFS censored: No postbaseline assessment,Total (N=60),2 (3.3) n (%)
same,PFS censored: ≥2 consecutive missed assessments,Total (N=60),2 (3.3) n (%)
same,PFS events: Death,Total (N=60),9 (15.0) n (%)
same,PFS events: Disease progression,Total (N=60),30 (50.0) n (%)
same,PFS: Censored,Total (N=60),21 (35.0) n (%)
same,PFS: Events,Total (N=60),39 (65.0) n (%)
same,"Progression-Free Survival, Median",Total (N=60),8.3 (5.45-13.67) months (95% CI)
same,"Event-free rate, 1 year",Total BID Dosage Group (n=51),45.6 (29.51-60.25) % (95% CI)
same,"Event-free rate, 2 years",Total BID Dosage Group (n=51),16.4 (5.98-31.33) % (95% CI)
same,"ORR, subgroup Age <65",Total BID Dosage Group (n=51),42.1 (26.31-59.18) [38/51] % (95% CI)
same,"ORR, subgroup Age ≥65",Total BID Dosage Group (n=51),38.5 (13.86-68.42) [13/51] % (95% CI)
same,"ORR, subgroup Baseline ECOG performance status 0",Total BID Dosage Group (n=51),47.8 (26.82-69.41) [23/51] % (95% CI)
same,"ORR, subgroup Baseline ECOG performance status ≥1",Total BID Dosage Group (n=51),35.7 (18.64-55.93) [28/51] % (95% CI)
same,"ORR, subgroup Germline BRCA status Mutant",Total BID Dosage Group (n=51),73.3 (44.90-92.21) [15/51] % (95% CI)
same,"ORR, subgroup Germline BRCA status Wild-type/Unknown",Total BID Dosage Group (n=51),27.8 (14.20-45.19) [36/51] % (95% CI)
same,"ORR, subgroup Germline or somatic BRCA status Mutant",Total BID Dosage Group (n=51),64.3 (44.07-81.36) [28/51] % (95% CI)
same,"ORR, subgroup Germline or somatic BRCA status Wild-type/Unknown",Total BID Dosage Group (n=51),13.0 (2.78-33.59) [23/51] % (95% CI)
same,"ORR, subgroup HRD status Negative/Unknown",Total BID Dosage Group (n=51),14.3 (3.05-36.34) [21/51] % (95% CI)
same,"ORR, subgroup HRD status Positive",Total BID Dosage Group (n=51),60.0 (40.60-77.34) [30/51] % (95% CI)
same,"ORR, subgroup Platinum-sensitivity status Refractory",Total BID Dosage Group (n=51),9.1 (0.23-41.28) [11/51] % (95% CI)
same,"ORR, subgroup Platinum-sensitivity status Resistant",Total BID Dosage Group (n=51),21.1 (6.05-45.57) [19/51] % (95% CI)
same,"ORR, subgroup Platinum-sensitivity status Sensitive",Total BID Dosage Group (n=51),76.2 (52.83-91.78) [21/51] % (95% CI)
same,"ORR, subgroup Solid tumor stage 3",Total BID Dosage Group (n=51),53.6 (33.87-72.49) [28/51] % (95% CI)
same,"ORR, subgroup Solid tumor stage 4",Total BID Dosage Group (n=51),23.8 (8.22-47.17) [21/51] % (95% CI)
same,PFS censored: No disease progression or death,Total BID Dosage Group (n=51),15 (29.4) n (%)
same,PFS censored: No postbaseline assessment,Total BID Dosage Group (n=51),2 (3.9) n (%)
same,PFS censored: ≥2 consecutive missed assessments,Total BID Dosage Group (n=51),2 (3.9) n (%)
same,PFS events: Death,Total BID Dosage Group (n=51),6 (11.8) n (%)
same,PFS events: Disease progression,Total BID Dosage Group (n=51),26 (51.0) n (%)
same,PFS: Censored,Total BID Dosage Group (n=51),19 (37.3) n (%)
same,PFS: Events,Total BID Dosage Group (n=51),32 (62.7) n (%)
same,"Progression-Free Survival, Median",Total BID Dosage Group (n=51),9.9 (5.49-14.62) months (95% CI)
